Columns and labels:
[1] = Acute toxicity LD50 in mice (Test Example 8); settings: mouse, in vivo, one week, Probit method
Procedure: (§1) ddy-Strain mice (male) and Wistar strain rats were used to obtain LD50 values.
(§2) According to the ordinary procedure, suspension or solution of test sample was administered to the animals. From the number of the died animals until one week after the administration, LD50 values were obtained by Probit method.

[2] = test system: experimental ulcer model (Shay); test: Anti-ulcer activity in experimental ulcer model (Shay); assay type: in vivo, Wistar strain male rats
Procedure: Using 5 eight-week old Wistar strain male rats of 1 group, the rats were previously fasted for […]. The compound of an amount proportionate to the body weight based on the body weight after fasting was administered intraduodenally or intraperitoneally.
Each test compound was evenly suspended or dissolved in an aqueous solution of 0.5% CMC ccntaining 0.1% Tween 80, and administered at the rate of 0.5 ml per 100 g of body weight of the animal. To the controls, only the solvent was administered.
Test was carried out in accordance with Shay's method. After 48 hours' fasting, 5 animals per group were subjected to laparotomy under ether anesthesia, the tract between pylorus of stomach and duodenum was ligated, and the solution of the compound was administered intraduodenally (id) or intraperitoneally (ip), followed by suturing the laparotomy part. Eight hours after administration of the compound liquid, each animal was sacrificed by ether anesthesia and stomach was removed. Then, evaluation on the ulcer condition on the inner surface of stomach, and determination of the amount of gastric juice, of acidity by alkali titration, and of pepsin titer based on substrate of hemoglovin were made on the stored gastric juice. With regard to the acidity, gastric juice amount, and pepsin titer, the results were shown in inhibition rate (%) based on the average value of the control groups.

hyaluronidase = biological target: T1, hyaluronidase (Bos taurus, UniProt Q2YDK3); test: Anti-hyaluronidase activity (modified Morgan-Elson method); assay type: biochemical; settings: hyaluronidase 340NF unit/ml; activating agent Compound 48/80 or CaCl2; read-out: IC50
T1 sequence (Q2YDK3 36-553): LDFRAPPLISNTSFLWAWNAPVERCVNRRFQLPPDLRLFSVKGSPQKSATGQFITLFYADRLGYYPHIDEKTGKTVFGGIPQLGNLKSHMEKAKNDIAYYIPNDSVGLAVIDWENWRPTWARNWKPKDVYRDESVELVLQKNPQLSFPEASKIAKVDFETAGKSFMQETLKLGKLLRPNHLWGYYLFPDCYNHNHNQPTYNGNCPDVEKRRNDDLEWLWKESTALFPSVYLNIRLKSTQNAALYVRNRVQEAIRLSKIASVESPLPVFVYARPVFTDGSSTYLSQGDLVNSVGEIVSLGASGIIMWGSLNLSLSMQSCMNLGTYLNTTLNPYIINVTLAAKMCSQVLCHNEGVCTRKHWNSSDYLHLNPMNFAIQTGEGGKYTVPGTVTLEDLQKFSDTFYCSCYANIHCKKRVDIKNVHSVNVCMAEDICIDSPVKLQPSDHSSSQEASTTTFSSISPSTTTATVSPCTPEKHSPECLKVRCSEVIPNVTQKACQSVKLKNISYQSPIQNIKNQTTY
Procedure: A buffer soluticn of hyaluronidase (0.1 ml) was taken in a test tube and 0.2 ml each of the buffer solution of various compounds in various concentrations was added, and the mixture was preincubated at 37° C. for 20 minutes. Then, an activating agent (Compound 48/80 or CaCl2) (0.2 ml) was added to make the total amount 0.5 ml, which was incubated at 37° C. for 20 minutes. Then, potassium hyaluronate buffer solution (0.5 ml) was added, and the mixture was incubated at 37° C. for 40 minutes. After cooling, the mixture was treated with aqueous solution of 0.4N NaOH (0.2 ml) and neutralized to stop the reaction. The resulting product was subjecred to measurement of OD585 by the modified Morgan-Elson Method. […] (The final ccncentration of hyaluronidase was 340NF unit/ml.) [formula]

[3] = Acute toxicity LD50 in rats (Test Example 8); settings: rat, in vivo, po; one week; Probit method; read-out: LD50 value (mg/kg body weight) Rat p.o.
Procedure: as §1, §2

SMILES: COc1ccc(C=C(C(=O)Nc2ccccc2C(=O)O)C(=O)Nc2ccccc2C(=O)O)cc1OC [Compound 20, 2,2'-[[2-(3,4-dimethoxy)phenylmethylene-1,3-dioxo-1,3-propanediyl]diimino]bisbenzoic acid]
- LD50 at 168 h ([1]; iv, read-out: LD50 value (mg/kg body weight) Mouse i.v.): 225 mg/kg
- LD50 at 168 h ([1]; po, read-out: LD50 value (mg/kg body weight) Mouse p.o.): > 10000 mg/kg
- Inhibition % Gastric Acidity ([2]; id 100 mg/kg): 64.5%
- Inhibition % secretion amount of gastric juice ([2]; id 100 mg/kg): 28.1%
- Inhibition % total pepsin titer ([2]; id 100 mg/kg): 42.5%
- Inhibition % Gastric Acidity ([2]; id 200 mg/kg): 99.5%
- Inhibition % secretion amount of gastric juice ([2]; id 200 mg/kg): 59.0%
- Inhibition % total pepsin titer ([2]; id 200 mg/kg): 69.3%
- Inhibition % Gastric Acidity ([2]; ip 10 mg/kg): 52.3%
- Inhibition % secretion amount of gastric juice ([2]; ip 10 mg/kg): 26.3%
- Inhibition % total pepsin titer ([2]; ip 10 mg/kg): 31.4%
- Inhibition % Gastric Acidity ([2]; ip 50 mg/kg): 88.0%
- Inhibition % secretion amount of gastric juice ([2]; ip 50 mg/kg): 70.9%
- Inhibition % total pepsin titer ([2]; ip 50 mg/kg): 60.7%
- IC50 (hyaluronidase): 40 µM
- LD50 at 168 h [3]: > 10000 mg/kg

From US4822791A, “Pharmaceutical compositions of-2,2-1,1-[bis-2,2'-(3,1-benzoxazin-4-one)9 ethylenes” (priority 1984, dated 1989)
